Measurements: ChEMBL document CHEMBL3769365, “Discovery of the First Potent and Selective Inhibitors of Human dCTP Pyrophosphatase 1” (J Med Chem, 2016)
In brackets after ≈: the same amount, converted by molar mass.

How the values were obtained:
dCTP pyrophosphatase 1 = target: T1, dCTP pyrophosphatase 1 (Homo sapiens, UniProt Q9H773); assay: Inhibition of human recombinant full length dCTPase expressed in Escherichia coli BL21(DE3)pLysS using dCTP as substrate after 1 hr by HTS-adapted Malachite Green assay
T1 sequence (Q9H773 whole entry): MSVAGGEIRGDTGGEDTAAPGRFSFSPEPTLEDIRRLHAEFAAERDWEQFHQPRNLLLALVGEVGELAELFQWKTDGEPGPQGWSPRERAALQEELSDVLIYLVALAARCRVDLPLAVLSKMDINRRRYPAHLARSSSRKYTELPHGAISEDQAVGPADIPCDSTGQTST

Liver microsome = assay: Half life in human liver microsomes; type: ADME
Cytochrome P450 1A2 = target: T2, Cytochrome P450 1A2 (Homo sapiens, UniProt P05177); assay: Inhibition of CYP1A2 (unknown origin) using phenacetin as substrate preincubated for 10 mins followed by NADPH addition by LC/MS/MS analysis; type: ADME
T2 sequence (P05177 whole entry): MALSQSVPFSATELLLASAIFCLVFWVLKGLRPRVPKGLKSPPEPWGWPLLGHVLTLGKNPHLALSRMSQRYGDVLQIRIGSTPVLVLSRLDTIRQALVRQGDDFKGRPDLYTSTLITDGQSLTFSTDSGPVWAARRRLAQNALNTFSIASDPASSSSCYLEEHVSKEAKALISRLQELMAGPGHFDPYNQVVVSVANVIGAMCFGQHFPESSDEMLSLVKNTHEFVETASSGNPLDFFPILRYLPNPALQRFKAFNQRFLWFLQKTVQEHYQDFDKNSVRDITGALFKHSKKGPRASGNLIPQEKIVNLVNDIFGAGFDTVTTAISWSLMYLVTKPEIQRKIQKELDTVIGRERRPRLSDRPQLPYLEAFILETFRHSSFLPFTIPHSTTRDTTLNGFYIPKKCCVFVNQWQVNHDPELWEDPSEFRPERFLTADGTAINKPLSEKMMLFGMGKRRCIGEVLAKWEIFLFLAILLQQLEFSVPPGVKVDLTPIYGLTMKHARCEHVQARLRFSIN

Cytochrome P450 2C9 = Cytochrome P450 2C9 (Homo sapiens, UniProt P11712); assay: Inhibition of CYP2C9 (unknown origin) using diclofenac as substrate preincubated for 10 mins followed by NADPH addition by LC/MS/MS analysis; type: ADME
[1] = Fraction unbound in plasma (unknown origin); type: ADME, cell-free
[2] = Aqueous solubility of the compound; type: physicochemical; details: buffer
Cytochrome P450 2D6 = Cytochrome P450 2D6 (Homo sapiens, UniProt P10635); assay: Inhibition of CYP2D6 (unknown origin) using bufuralol as substrate preincubated for 10 mins followed by NADPH addition by LC/MS/MS analysis; type: ADME
[3] = Efflux ratio of apparent permeability of the compound; type: ADME
[4] = Metabolic stability of plasma (unknown origin) assessed as compound remaining after 4 hrs; type: ADME, cell-free; details: read-out: Stability
Cytochrome P450 2C19 = Cytochrome P450 2C19 (Homo sapiens, UniProt P33261); assay: Inhibition of CYP2C19 (unknown origin) using mephenytoin as substrate preincubated for 10 mins followed by NADPH addition by LC/MS/MS analysis; type: ADME
Cytochrome P450 3A4 [5] = target: T3, Cytochrome P450 3A4 (Homo sapiens, UniProt P08684); assay: Inhibition of CYP3A4 (unknown origin) using testostrone as substrate preincubated for 10 mins followed by NADPH addition by LC/MS/MS analysis; type: ADME
[6] = Apparent permeability of the compound from apical to basolateral side; type: physicochemical
[7] = Half life in mouse liver microsomes; type: ADME
Cytochrome P450 3A4 [8] = target: T3, Cytochrome P450 3A4; assay: Inhibition of CYP3A4 (unknown origin) using midazolam as substrate preincubated for 10 mins followed by NADPH addition by LC/MS/MS analysis; type: ADME
[9] = Photostability of compound at room temperature after 5 months by LC/MS analysis; type: physicochemical; details: 3652.5 h
[10] = Mutagenicity in human HL60 cells assessed as gammaH2AX foci formation at 2.5 uM after 24 hrs by immunofluorescence staining-based Zeiss LSM-780 confocal microscopy; type: toxicity, cell-based; details: hl-60, 24 h
[11] = Mutagenicity in human HL60 cells assessed as Chk1 phosphorylation at S345 by Western blot analysis; type: toxicity, cell-based; details: hl-60
[12] = Mutagenicity in human HL60 cells assessed as caspase 3 cleavage by Western blot analysis; type: toxicity, cell-based; details: hl-60
[13] = Mutagenicity in human HL60 cells assessed as 53BP1 foci formation at 2.5 uM after 24 hrs by immunofluorescence staining-based Zeiss LSM-780 confocal microscopy; type: toxicity, cell-based; details: hl-60, 24 h

T3 sequence (P08684 whole entry): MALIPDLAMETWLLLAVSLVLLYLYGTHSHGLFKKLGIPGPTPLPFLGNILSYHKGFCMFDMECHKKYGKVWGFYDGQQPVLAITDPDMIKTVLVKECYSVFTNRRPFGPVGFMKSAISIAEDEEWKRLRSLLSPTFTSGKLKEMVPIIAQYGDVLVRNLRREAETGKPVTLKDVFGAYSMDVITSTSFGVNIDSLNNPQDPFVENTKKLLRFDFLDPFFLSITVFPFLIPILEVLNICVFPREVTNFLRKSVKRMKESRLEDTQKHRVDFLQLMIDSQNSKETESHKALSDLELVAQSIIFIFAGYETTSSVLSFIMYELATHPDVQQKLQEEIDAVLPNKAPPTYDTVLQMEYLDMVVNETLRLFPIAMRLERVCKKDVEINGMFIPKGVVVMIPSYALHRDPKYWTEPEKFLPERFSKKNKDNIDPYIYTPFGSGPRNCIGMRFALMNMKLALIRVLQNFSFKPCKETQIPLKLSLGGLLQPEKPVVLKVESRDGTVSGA
Cytochrome P450 2C9, sequence (P11712 whole entry): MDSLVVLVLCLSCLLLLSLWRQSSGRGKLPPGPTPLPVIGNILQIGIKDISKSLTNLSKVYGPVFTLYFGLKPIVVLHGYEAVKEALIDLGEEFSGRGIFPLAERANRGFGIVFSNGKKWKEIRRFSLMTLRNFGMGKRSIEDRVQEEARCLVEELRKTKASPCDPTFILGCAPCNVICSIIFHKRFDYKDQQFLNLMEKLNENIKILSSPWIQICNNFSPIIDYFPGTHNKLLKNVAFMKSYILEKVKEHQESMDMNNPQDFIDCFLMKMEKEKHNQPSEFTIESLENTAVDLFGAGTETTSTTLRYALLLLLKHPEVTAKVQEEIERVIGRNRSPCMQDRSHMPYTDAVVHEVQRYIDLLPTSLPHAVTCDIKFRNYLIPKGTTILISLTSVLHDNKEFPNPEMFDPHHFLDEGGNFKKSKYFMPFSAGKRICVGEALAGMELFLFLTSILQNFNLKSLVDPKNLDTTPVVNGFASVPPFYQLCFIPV
Cytochrome P450 2C19, sequence (P33261 whole entry): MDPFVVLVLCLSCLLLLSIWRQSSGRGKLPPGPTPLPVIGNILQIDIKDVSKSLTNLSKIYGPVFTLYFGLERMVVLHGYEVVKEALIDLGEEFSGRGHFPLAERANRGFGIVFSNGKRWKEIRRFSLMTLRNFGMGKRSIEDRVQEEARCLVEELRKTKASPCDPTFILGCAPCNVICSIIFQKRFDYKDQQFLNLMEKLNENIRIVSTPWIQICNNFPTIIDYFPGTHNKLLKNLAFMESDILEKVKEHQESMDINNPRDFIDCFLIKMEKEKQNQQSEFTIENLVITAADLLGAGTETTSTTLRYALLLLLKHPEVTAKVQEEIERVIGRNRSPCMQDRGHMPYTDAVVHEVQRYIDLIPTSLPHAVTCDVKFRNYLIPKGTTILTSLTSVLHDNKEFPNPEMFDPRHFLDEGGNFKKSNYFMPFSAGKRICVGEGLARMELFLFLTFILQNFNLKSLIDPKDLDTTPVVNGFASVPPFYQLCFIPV
Cytochrome P450 2D6, sequence (P10635 whole entry): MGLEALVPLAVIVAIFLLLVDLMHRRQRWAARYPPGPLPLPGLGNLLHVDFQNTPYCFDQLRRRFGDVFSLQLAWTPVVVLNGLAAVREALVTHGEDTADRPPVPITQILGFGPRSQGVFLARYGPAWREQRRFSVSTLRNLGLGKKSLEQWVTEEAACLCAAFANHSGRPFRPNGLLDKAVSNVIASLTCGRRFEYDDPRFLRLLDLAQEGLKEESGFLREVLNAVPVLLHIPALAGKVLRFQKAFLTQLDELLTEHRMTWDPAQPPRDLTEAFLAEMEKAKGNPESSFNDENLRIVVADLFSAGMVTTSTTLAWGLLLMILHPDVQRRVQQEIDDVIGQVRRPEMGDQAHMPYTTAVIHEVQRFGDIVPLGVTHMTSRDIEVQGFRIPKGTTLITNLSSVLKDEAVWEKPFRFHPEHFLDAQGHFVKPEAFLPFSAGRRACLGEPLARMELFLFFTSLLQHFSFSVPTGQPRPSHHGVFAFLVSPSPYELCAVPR

COc1ccc(Cn2c(C)nc3c([N+](=O)[O-])cccc32)cc1
IC50 (dCTP pyrophosphatase 1): 1450 nM

Cc1nc2c([N+](=O)[O-])c(Cl)c(Cl)cc2n1Cc1ccc(C(=O)O)cc1
IC50 (dCTP pyrophosphatase 1): 73 nM

Cc1nc2c([N+](=O)[O-])c(Cl)c(Cl)cc2n1Cc1ccc(B2OC(=O)CN(C)CC(=O)O2)cc1
t1/2 (Liver microsome): 11 min
IC50 (Cytochrome P450 1A2): 377000 nM
IC50 (Cytochrome P450 2C9): 1720 nM
Fu [1]: 0.8%
solubility [2]: > 100 µM
IC50 (Cytochrome P450 2D6): 16800 nM
IC50 (dCTP pyrophosphatase 1): 47 nM
Ratio [3]: 1.51
remaining at 4 h [4]: 86%
IC50 (Cytochrome P450 2C19): 2930 nM
IC50 (Cytochrome P450 3A4 [5]): 21900 nM
Papp [6]: 8.66 ×10⁻⁶ cm/s
t1/2 [7]: 109 min
IC50 (Cytochrome P450 3A4 [8]): 28100 nM

Cc1nc2c([N+](=O)[O-])c(Cl)c(Cl)cc2n1CCc1ccc(B(O)O)cc1
IC50 (dCTP pyrophosphatase 1): 205 nM

CC(=O)Oc1ccc(Cn2c(C)nc3c([N+](=O)[O-])c(Cl)c(Cl)cc32)cc1
IC50 (dCTP pyrophosphatase 1): 34 nM

Cc1nc2c([N+](=O)[O-])c(Cl)c(Cl)cc2n1Cc1ccc(C=O)cc1
IC50 (dCTP pyrophosphatase 1): 133 nM

Cc1ccc(Cn2c(C)nc3c([N+](=O)[O-])c(Cl)c(Cl)cc32)cc1
IC50 (dCTP pyrophosphatase 1): 19 nM

Cc1nc2c([N+](=O)[O-])c(Cl)c(Cl)cc2n1Cc1ccccc1
IC50 (dCTP pyrophosphatase 1): 49 nM

COc1ccc(Cn2cnc3ccccc32)cc1
IC50 (dCTP pyrophosphatase 1): > 100000 nM

COc1ccc(Cn2c(C)nc3ccccc32)cc1
IC50 (dCTP pyrophosphatase 1): > 100000 nM

COc1ccc(Cn2c(C)nc3c([N+](=O)[O-])c(Cl)c(Cl)cc32)cc1
t1/2 (Liver microsome): 30 min
t1/2 [7]: 8 min

COC(=O)c1ccc(Cn2c(C)nc3c([N+](=O)[O-])c(Cl)c(Cl)cc32)cc1
IC50 (dCTP pyrophosphatase 1): 95 nM

O=[N+]([O-])c1c(Cl)c(Cl)cc2c1nc(C1CC1)n2Cc1ccc(B(O)O)cc1
t1/2 (Liver microsome): 268 min
t1/2 [7]: 13 min

Cc1nc2c([N+](=O)[O-])c(Cl)c(Cl)cc2n1C(=O)c1ccccc1
IC50 (dCTP pyrophosphatase 1): 96 nM

COc1ccc(Cn2cnc3cc(C)c(C)cc32)cc1
IC50 (dCTP pyrophosphatase 1): > 100000 nM

Cc1nc2c([N+](=O)[O-])c(Cl)c(Cl)cc2n1Cc1ccc(-n2cccn2)cc1
t1/2 (Liver microsome): 38 min
IC50 (dCTP pyrophosphatase 1): 75 nM
t1/2 [7]: 22 min

Cc1nc2c([N+](=O)[O-])c(F)c(F)cc2n1Cc1ccc(B(O)O)cc1
IC50 (dCTP pyrophosphatase 1): 529 nM

Cc1nc2c([N+](=O)[O-])c(Cl)c(Cl)cc2n1Cc1ccc(O)cc1
Fu [1]: 0.7%
solubility [2]: 11 µM (≈ 3.87 µg/mL)
IC50 (dCTP pyrophosphatase 1): 21 nM
remaining at 4 h [4]: 96%

COc1ccc(Cn2c(C)nc3cc(Cl)c(Cl)cc32)cc1
IC50 (dCTP pyrophosphatase 1): 12000 nM

Cc1nc2c([N+](=O)[O-])c(Cl)c(Cl)cc2n1Cc1ccc(-n2cccc2)cc1
IC50 (dCTP pyrophosphatase 1): 331 nM

Cc1cc2c(nc(C)n2C(C)c2ccccc2)c([N+](=O)[O-])c1C (centres undefined)
IC50 (dCTP pyrophosphatase 1): 250 nM

Cc1nc2c([N+](=O)[O-])c(Cl)c(Cl)cc2n1Cc1ccc(Cl)nc1
IC50 (dCTP pyrophosphatase 1): 185 nM

Cc1nc2c([N+](=O)[O-])c(Cl)c(Cl)cc2n1Cc1ccc(C#N)cc1
IC50 (dCTP pyrophosphatase 1): 165 nM

COc1ccc(Cn2c(C)nc3cc(C)c(C)cc32)cc1
IC50 (dCTP pyrophosphatase 1): 22000 nM

Cc1nc2c([N+](=O)[O-])c(Cl)c(Cl)cc2n1Cc1ccc(B(O)O)cc1
Stability [9]: Stable
Activity [10]: Non-toxic
t1/2 (Liver microsome): 72 min
Activity [11]: Non-toxic
Activity [12]: Non-toxic
Fu [1]: 0.1%
solubility [2]: 52 µM (≈ 19.8 µg/mL)
IC50 (dCTP pyrophosphatase 1): 46 nM
remaining at 4 h [4]: 11%
Activity [13]: Non-toxic
t1/2 [7]: 197 min

Cc1nc2c([N+](=O)[O-])c(Cl)c(Cl)cc2n1Cc1cccc(B(O)O)c1
IC50 (dCTP pyrophosphatase 1): 46 nM

COc1ccc(Cn2c(C)nc3c([N+](=O)[O-])c(C)c(C)cc32)cc1
IC50 (dCTP pyrophosphatase 1): 57 nM

Cc1nc(Cn2c(C)nc3c([N+](=O)[O-])c(Cl)c(Cl)cc32)cs1
IC50 (dCTP pyrophosphatase 1): 240 nM

Cc1nc2c([N+](=O)[O-])c(Cl)c(Cl)cc2n1-c1ccccc1
IC50 (dCTP pyrophosphatase 1): 85 nM

Cc1nc2cc(Cl)c(Cl)cc2n1Cc1ccc(B(O)O)cc1
IC50 (dCTP pyrophosphatase 1): 248 nM

Cc1n[nH]c(C)c1CCn1c(C)nc2c([N+](=O)[O-])c(Cl)c(Cl)cc21
t1/2 (Liver microsome): 6 min
IC50 (dCTP pyrophosphatase 1): 190 nM
t1/2 [7]: 7 min

Cc1nc2c([N+](=O)[O-])c(Cl)c(Cl)cc2n1Cc1ccccc1B(O)O
IC50 (dCTP pyrophosphatase 1): 82 nM
